Data taken from patent publication US20130331345A1, “PUERARIN HYDRATES, PREPARATION METHODS AND USES THEREOF” (priority 2010, published 2013).

Molecular target: T1, ACE (Rattus norvegicus, UniProt P47820)
T1 construct: from tissue; host or cells: blood serum of Wistar rats
T1 sequence (P47820 36-1313): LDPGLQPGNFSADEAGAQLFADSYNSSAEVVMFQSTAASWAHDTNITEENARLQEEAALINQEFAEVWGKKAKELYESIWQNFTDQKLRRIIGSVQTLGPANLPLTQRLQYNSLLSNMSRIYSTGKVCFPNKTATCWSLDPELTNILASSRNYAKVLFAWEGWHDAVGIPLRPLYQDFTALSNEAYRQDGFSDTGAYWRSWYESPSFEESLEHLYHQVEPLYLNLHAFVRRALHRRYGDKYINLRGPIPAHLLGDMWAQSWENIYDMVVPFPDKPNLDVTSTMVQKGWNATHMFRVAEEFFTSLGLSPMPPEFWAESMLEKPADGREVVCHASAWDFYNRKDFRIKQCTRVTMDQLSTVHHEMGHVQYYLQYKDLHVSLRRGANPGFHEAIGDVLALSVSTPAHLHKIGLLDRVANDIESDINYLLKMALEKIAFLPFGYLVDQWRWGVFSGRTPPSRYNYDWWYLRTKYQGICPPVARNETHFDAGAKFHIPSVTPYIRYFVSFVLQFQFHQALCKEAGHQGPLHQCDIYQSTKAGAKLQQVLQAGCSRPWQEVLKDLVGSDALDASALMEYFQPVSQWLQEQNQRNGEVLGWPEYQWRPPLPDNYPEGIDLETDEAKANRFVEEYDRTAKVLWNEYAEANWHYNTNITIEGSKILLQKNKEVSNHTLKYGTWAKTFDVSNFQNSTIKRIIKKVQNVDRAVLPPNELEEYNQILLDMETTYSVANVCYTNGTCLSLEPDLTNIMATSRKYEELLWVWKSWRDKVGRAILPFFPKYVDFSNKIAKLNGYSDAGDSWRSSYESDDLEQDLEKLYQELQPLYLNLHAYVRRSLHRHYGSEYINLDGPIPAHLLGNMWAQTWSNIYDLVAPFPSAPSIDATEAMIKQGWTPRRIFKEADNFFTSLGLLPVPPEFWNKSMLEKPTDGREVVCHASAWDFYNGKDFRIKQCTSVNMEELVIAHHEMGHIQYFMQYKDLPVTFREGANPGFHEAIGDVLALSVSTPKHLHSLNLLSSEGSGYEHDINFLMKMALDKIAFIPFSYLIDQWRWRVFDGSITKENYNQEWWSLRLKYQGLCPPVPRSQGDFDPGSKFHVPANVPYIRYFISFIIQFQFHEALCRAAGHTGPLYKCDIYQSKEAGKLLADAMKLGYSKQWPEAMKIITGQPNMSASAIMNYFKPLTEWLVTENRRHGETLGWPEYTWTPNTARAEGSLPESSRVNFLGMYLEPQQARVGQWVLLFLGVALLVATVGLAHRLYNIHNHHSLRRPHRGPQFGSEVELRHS
Assay: Effects on inhibiting ACE activity (rat blood serum after intraperitoneal injection)
Format: in vivo, Wistar rats
Procedure: 24 Wistar rats, 280-300 g, were randomly divided into 3 groups, 8 rats per group, one group was control group, other two groups were separately 100 mg/kg, 200 mg/kg dose groups (which was added with cosolvent to form an injectable solution), subjected to intraperitoneal injection, the control group was administered with physiological saline. 60 min after administration, the rats were anesthetized with 1% pentobarbital sodium, subjected to thoracotomy and blood sample was taken from heart, the blood sample stood at room temperature for 30 min, centrifuged under 3500 r/min at low temperature for 10 min, the supernatant was taken and stored at about −65° C., for test. Measurement of ACE activity: referring to document [WANG, Fumin, et al, Chinese Journal of Laboratory Medicine, 1983, 6(3):145-151], the results were subjected to statistical treatment: the results were expressed in x±S, and data were subjected to analysis of variance and t-test.

## O=c1c(-c2ccc(O)cc2)coc2c([C@@H]3O[C@H](CO)[C@@H](O)[C@H](O)[C@H]3O)c(O)ccc12 [Sample 1, puerarin monohydrate]
100 and 200 mg/kg intraperitoneal, P<0.01
  rat blood serum ACE activity compared with the control group: dose-dependent decrease
rat, ip, rats, 100 mg/kg intraperitoneal, vs control group, read-out: inhibition rate (%)
  inhibition at 100 mg/kg: 36.1%
rats, 100 mg/kg intraperitoneal, blood taken 60 min after administration
  ACE (IU): 34.8 ± 6.19 IU
